Experiments:
NCI-H226 = experiment: 72H TEAD Proliferation Assay (Cell Titer-Glo 2.0); type: cell-based; conditions: CTG 2.0, cell line not given
Method: The effect of TEAD inhibition on cell proliferation was assayed using Cell Titer Glo (CTG) 2.0 to measure response in mesothelioma cell lines NCI-H226 (ATCC, #CRL-5826) and NCI-H28 (ATCC, #CRL-5820).
The 72H TEAD Proliferation assay utilizes Cell Titer-Glo 2.0 (Promega, #G9243) to measure the proliferation of cells in the presence or absence of compound. Cell Titer-Glo 2.0 determines the amount of viable cells by quantifying ATP (an indication of metabolically active cells). It utilizes the conversion of Luciferin to Oxyluciferin and a luminescent signal with the use of ATP to report the quantity of viable cells in culture. Within cells that are continually growing, ATP is being synthesized to meet their metabolic demands, meanwhile the opposite is true for cells that are dying or slowing down their proliferation and either no longer using ATP or are using less, respectively. The NF2-deficient NCI-H226 has been genetically validated as a cell line that is sensitive to TEAD inhibition. The NF2-wild type NCI-H28 has been genetically validated as a cell line that is not sensitive to TEAD inhibition and grows independently of TEAD activity.
Compounds were screened against the responsive NCI-H226 cell line to assess the compounds' ability to inhibit TEAD and cell growth. Compounds were also screened against the non-responsive NCI-H28 cell line to ascertain whether the inhibition of cell growth was due to inhibition of the target TEAD or whether the inhibition was due to off-target cytotoxicity.
1) Assay ready plates (ARPs) were prepared by Echo acoustic liquid handler. For each compound, duplicate of 10-point half-log dilution series were dispensed in a 384-well microplate (Corning 3571).
5) NCI-H226 or NCI-H28 cells were harvested from culture in Assay Medium 1 and the multidrop Combi reagent dispenser was used to seed cells at 500 cells per 50 ul in each well of the ARPs and one Corning 3571 plate without compounds for Time 0 (TO) readout.
6) The TO plate was incubated for 2 hours at 37° C. with 5% CO2 to allow cells to settle, then the CTG Assay was performed.
7) All ARPs were incubated for 72 hours at 37° C. with 5% CO2, then the CTG Assay was performed for Time 72H (T72) readout.
8) CTG Assay: Bravo liquid handler (Agilent) was used to add 25 ul of CTG 2.0 to all columns of the plate except for Column 24, which was used to subtract out the background. After CTG addition, plates were placed on shaker at 800 RPM for 15 minutes at room temperature and kept in the dark. Luminescence was measured using EnVision multilabel plate reader with ultra-sensitive detection module.
9) Data Analysis: First background luminescence (no CTG wells) was subtracted from luminescence reading of all wells, then TO luminescence was subtracted from T72 luminescence. To compare anti-proliferative effect of compounds, GI50 was obtained by fitting dose response curves with nonlinear regression curve fit.

His-Tev-Avi-TEAD1 = His-Tev-Avi-TEAD1 (Homo sapiens, UniProt P28347); experiment: TEAD mass modification assay (iMS); type: binding; conditions: 50 μM compound, 1 hour, room temperature
Method: Compound stock (10 mM) was diluted to 2.5 mM with DMSO and His-Tev-Avi-TEAD1 was diluted to 5 μM with Reaction Buffer (50 mM Tris pH 8.0, 150 mM NaCl, and 1 mM TCEP). Compound (1 μL) is incubated with 49 μL protein at room temperature for 1 hour (final compound concentration was 50 μM). The sample (20 μL) was shipped on dry ice to MSBioworks for iMS analysis.
This assay confirms whether or not TEAD is covalently bound to a test compound (i.e., whether the protein's mass is modified). […] Compounds 80 (see FIG. 2), 89 (see FIG. 3), 73 (see FIG. 4), 53 (see FIG. 5), and 59 (see FIG. 6) were also tested in this fashion.

[1] = target: TEAD1 protein (YAP Binding Domain) (Homo sapiens, UniProt P28347); experiment: TEAD1 lipid pocket compound displacement assay (TR-FRET, Cy5-probe); conditions: 60 minutes incubation at room temperature; TR-FRET 665 nm/620 nm; read-out: CDA IC50
Outline: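 His-tagged TEAD1 YAP-binding domain pre-mixed with a Cy5-labelled lipid-pocket probe and Tb-anti-His antibody; compounds incubated with the complex 60 min at room temperature. TR-FRET read at 665/620 nm; IC50 from 4-parameter non-linear fit of probe displacement.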

Chain of His-Tev-Avi-TEAD1 (P28347 209-426 limits assumed): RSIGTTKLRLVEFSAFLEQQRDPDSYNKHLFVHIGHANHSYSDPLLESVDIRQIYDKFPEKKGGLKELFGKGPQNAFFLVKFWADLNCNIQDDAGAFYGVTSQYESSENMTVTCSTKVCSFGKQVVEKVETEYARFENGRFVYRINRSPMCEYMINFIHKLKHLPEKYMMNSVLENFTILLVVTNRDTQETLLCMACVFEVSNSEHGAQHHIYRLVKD
Chain of TEAD1 protein (YAP Binding Domain) (P28347 209-426 limits assumed): as above

Compound | GI50 (NCI-H226; Homo sapiens, NCI-H226, 72 h) [µM] | mass modification of TEAD1 (covalent binding) (His-Tev-Avi-TEAD1) | IC50 [1] [µM] | mass of the protein treated with compound (His-Tev-Avi-TEAD1; untreated protein m/z 30,030.70) | GI50 (NCI-H226) [µM]
C=CC(=O)Nc1ccc(OCc2ccccc2Cl)c(F)c1 [Compound 53, N-(4-((2-chlorobenzyl)oxy)-3-fluorophenyl)acrylamide] | 1 to 3 | mass modification of TEAD1 | 0.5 to 2 |  | 
C=CC(=O)Nc1ccc(OCC2CCC(F)(F)CC2)c(F)c1 [Compound 58, N-(4-((4,4-difluorocyclohexyl)methoxy)-3-fluorophenyl)acrylamide] | 0.25 to 1 | mass shift indicates modification of TEAD1 | ≤ 0.25 | 30,344.29 m/z | 
C=CC(=O)Nc1ccc(OCC2CCC(C(F)(F)F)CC2)c(F)c1 (stereo not shown) [Compound 59, N-(3-fluoro-4-((4-(trifluoromethyl)cyclohexyl)methoxy)phenyl)acrylamide] | > 3 | mass modification of TEAD1 | ≤ 0.25 |  | 
C=CC(=O)Nc1ccc(OCc2ccc(C(F)(F)F)nc2)c(F)c1 [Compound 73, N-(3-fluoro-4-((6-(trifluoromethyl)pyridin-3-yl)methoxy)phenyl)acrylamide] | 0.25 to 1 | mass modification of TEAD1 | 0.5 to 2 |  | 
C=CC(=O)Nc1ccc(OCc2cccc(Cl)c2Cl)c(F)c1 [Compound 80, N-(4-((2,3-dichlorobenzyl)oxy)-3-fluorophenyl)acrylamide] | 0.25 to 1 | mass modification of TEAD1 | ≤ 0.25 |  | 
C=CC(=O)Nc1ccc(C2COc3ccccc3C2)c(F)c1 (stereo not shown) [Compound 120, N-(4-(chroman-3-yl)-3-fluorophenyl)acrylamide] | > 3 |  | 0.25 to 0.5 |  | 
C=CC(=O)Nc1ccc(C2COc3ccccc3N2)c(F)c1 (stereo not shown) [Compound 121, N-(4-(3,4-dihydro-2H-benzo[b][1,4]oxazin-3-yl)-3-fluorophenyl)acrylamide] | > 3 |  | 0.5 to 2 |  | 
C=CC(=O)Nc1ccc(C2COc3ccccc3O2)c(F)c1 (stereo not shown) [Compound 122, N-(4-(2,3-dihydrobenzo[b][1,4]dioxin-2-yl)-3-fluorophenyl)acrylamide] | > 3 |  | ≤ 0.25 |  | 
C=CC(=O)Nc1ccc(OC(C)c2cccc(F)c2)c(F)c1 (stereo not shown) [Compound 124, N-(3-fluoro-4-(1-(3-fluorophenyl)ethoxy)phenyl)acrylamide] | > 3 |  | 0.25 to 0.5 |  | 
CN(C)C/C=C/C(=O)Nc1ccc(OCc2cccc(F)c2)c(F)c1 [Compound 125, (E)-4-(dimethylamino)-N-(3-fluoro-4-((3-fluorobenzyl)oxy)phenyl)but-2-enamide] | > 3 |  | > 2 |  | 
C=C=CC(=O)Nc1ccc(OCc2cccc(F)c2)c(F)c1 [Compound 126] | 1 to 3 |  | ≤ 0.25 |  | 
C=CC(=O)Nc1cnc(OCc2cccc(F)c2)c(F)c1 [Compound 129, N-(5-fluoro-6-((3-fluorobenzyl)oxy)pyridin-3-yl)acrylamide] | > 3 |  | 0.25 to 0.5 |  | 
C=CC(=O)Nc1cc2nc(CCC(C)C)oc2cc1F [Compound 132, N-(6-fluoro-2-isopentylbenzo[d]oxazol-5-yl)acrylamide] | ≤ 0.25 |  | 0.25 to 0.5 |  | 
C=CC(=O)Nc1cc2nc(CC3CC3)oc2cc1F [Compound 134, N-(2-(cyclopropylmethyl)-6-fluorobenzo[d]oxazol-5-yl)acrylamide] | 1 to 3 |  | > 2 |  | 
C=CC(=O)Nc1cc2nc(C3CCC(F)(F)CC3)oc2cc1F [Compound 135, N-(2-(4,4-difluorocyclohexyl)-6-fluorobenzo[d]oxazol-5-yl)acrylamide] |  |  | 0.5 to 2 |  | ≤ 0.25
C=CC(=O)Nc1cc2nc(CC3CCC(F)(F)CC3)oc2cc1F [Compound 136, N-(2-((4,4-difluorocyclohexyl)methyl)-6-fluorobenzo[d]oxazol-5-yl)acrylamide] | 0.25 to 1 |  | 0.25 to 0.5 |  | 
C=CC(=O)Nc1cc2nc(Cc3ccccc3)oc2cc1F [Compound 137, N-(2-benzyl-6-fluorobenzo[d]oxazol-5-yl)acrylamide] | > 3 |  | 0.25 to 0.5 |  | 
C=CC(=O)Nc1cc2nc(C3CCC(F)(F)CC3)oc2cc1F [Compound 138, N-(2-(4,4-difluorocyclohexyl)-6-fluorobenzo[d]oxazol-5-yl)acrylamide] |  |  | 0.25 to 0.5 |  | 1 to 3
C=CC(=O)Nc1cc2nc(CCC(F)(F)C(F)(F)F)oc2cc1F [Compound 140, N-(6-fluoro-2-(3,3,4,4,4-pentafluorobutyl)benzo[d]oxazol-5-yl)acrylamide] | ≤ 0.25 |  | ≤ 0.25 |  | 
C=CC(=O)Nc1ccc2oc(CCCC(C)C)nc2c1F [Compound 141, N-(4-fluoro-2-(4-methylpentyl)benzo[d]oxazol-5-yl)acrylamide] | 0.25 to 1 |  | 0.25 to 0.5 |  | 
C=CC(=O)Nc1cc2nc(Cc3ccc(F)cc3)oc2cc1F [Compound 142, N-(6-fluoro-2-(4-fluorobenzyl)benzo[d]oxazol-5-yl)acrylamide] | 1 to 3 |  | 0.5 to 2 |  | 
C=CC(=O)Nc1cc2nc(CC(C)(C)C)oc2cc1F [Compound 143, N-(6-fluoro-2-neopentylbenzo[d]oxazol-5-yl)acrylamide] | 0.25 to 1 |  | 0.5 to 2 |  | 
C=CC(=O)Nc1cc2nc(CCC(F)(F)F)oc2cc1F [Compound 144, N-(6-fluoro-2-(3,3,3-trifluoropropyl)benzo[d]oxazol-5-yl)acrylamide] | 0.25 to 1 |  | > 2 |  | 
C=CC(=O)Nc1cc2nc(CC3CC3C)oc2cc1F (stereo not shown) [Compound 145, N-(6-fluoro-2-((2-methylcyclopropyl)methyl)benzo[d]oxazol-5-yl)acrylamide] | ≤ 0.25 |  | 0.25 to 0.5 |  | 
C=CC(=O)Nc1ccc2c(c1)OC(c1cccc(C(F)(F)F)c1)O2 (stereo not shown) [Compound 146, N-(2-(3-(trifluoromethyl)phenyl)benzo[d][1,3]dioxol-5-yl)acrylamide] | ≤ 0.25 |  | ≤ 0.25 |  | 
C=C(F)C(=O)Nc1ccc2c(c1)OC(c1cccc(C(F)(F)F)c1)O2 (stereo not shown) [Compound 148, 2-fluoro-N-(2-(3-(trifluoromethyl)phenyl)benzo[d][1,3]dioxol-5-yl)acrylamide] | 0.25 to 1 |  | 0.5 to 2 |  | 
C=C(F)C(=O)Nc1ccc(OCC2CCC(F)(F)CC2)c(F)c1 [Compound 149, N-(4-((4,4-difluorocyclohexyl)methoxy)-3-fluorophenyl)-2-fluoroacrylamide] | ≤ 0.25 |  | 0.25 to 0.5 |  | 
C=CC(=O)Nc1ccc(-c2ccc(C(F)(F)F)cc2)c2ncccc12 [Compound 150, N-(8-(4-(trifluoromethyl)phenyl)quinolin-5-yl)acrylamide] | ≤ 0.25 |  | ≤ 0.25 |  | 
C=CC(=O)Nc1ccc(-c2ccc(C(C)(C)C)cc2)c2ncccc12 [Compound 151, N-(8-(4-(tert-butyl)phenyl)quinolin-5-yl)acrylamide] | ≤ 0.25 |  | 0.25 to 0.5 |  | 
